Source: PMC10726920 (Cancer Medicine, 2023)
“And” between values parts separate entries of the source, which are not always exact repeats. Equal values may be shown once. Read-outs that look alike come from different tables or passages of the source.

Key:
[1] = tested on: relapsed/refractory acute lymphoblastic leukemia; test: Response (modified IWG criteria) and overall survival, Phase II study NCI-9775; format: in vivo, human
Description: Evaluable patients for response include all patients who had measurable disease present at baseline, began treatment, and had their disease re‐evaluated. Response was assessed by bone marrow aspirates and biopsies performed every 2 months (mandated at the end of Cycle 2, Cycle 4, and Cycle 6). The best responses were captured as overall responses at any time point. Response was evaluated based on modified response criteria by the International Working Group (IWG) recommendations for acute myeloid leukemia (Table S1).[33]
This was a phase II trial designed using a Simon design with an interim analysis to evaluate efficacy. Efficacy (success) was defined as a complete response (CR or CR incomplete (i)). All patients meeting the eligibility criteria who signed a consent form and began treatment were deemed evaluable for toxicity. […] Thus, this regimen was to be considered ineffective if the success rate was 10% or less (null hypothesis), while the smallest success rate that would warrant subsequent studies was 30% (i.e., alternate research hypothesis). With a maximum of 26 evaluable patients, this trial had 85% power to detect a CR/CRi rate of 30% or greater (vs. 10% or less) with a one‐sided Type I error of 0.09. This trial was designed with a futility analysis after enrollment of 11 patients; if there were one or fewer successes observed in these first 11 patients, the regimen would be considered ineffective, and the study terminated. If two or more successes were observed, the enrollment would continue to a total of 26 evaluable patients. In the final analysis, if five or more of these 26 evaluable patients had achieved a CR or CRi, this would be considered sufficient evidence of promising activity in this patient population. Otherwise, if four or fewer CR/CRi events were observed, this regimen would not warrant further evaluation in this population.
The primary endpoint was the proportion of successes, which was estimated by the number of successes divided by the total number of evaluable patients. Secondary endpoints of duration of response (CR or CRi) and overall survival (OS) were evaluated using Kaplan–Meier techniques; the frequency of proceeding to allogeneic stem cell transplant after achieving response and adverse events (AEs), as evaluated using reported the NCI Common Terminology Criteria for Adverse Events (CTCAE) version 4.0, were presented using descriptive statistics.

[2] = Plasma pharmacokinetics, Cycle 1 (LC-MS, non-compartmental); format: in vivo, human; conditions: for half-life / Tmax / concentration at 7 days / AUC(0-t) / Cmax: human, plasma, 3 mg; for concentration at 7 days: after 7 days of dosing
Description: Blood samples were obtained on Days 1, 2, and 8 of Cycle 1. […] plasma concentrations were measured using liquid chromatography‐mass spectroscopy. Plasma concentration‐time data were analyzed by standard methods using WinNonlin. Pearson's correlation coefficient (r) was used to assess correlation of group variables. Statistical significance was defined as p < 0.05. Additional details are contained in the Supplementary Method: Data S1.
Blood samples (6 ml, sodium heparin) were obtained during the first cycle of treatment before drug administration on Days 1, 2 and 8; and 0.5, 1, 2, 3, 4, and 8 hours after the oral dose was administered on Day 1 and Day 8. After collection, tubes were immediately cooled in an ice water bath and plasma was isolated by centrifugation (10 minutes; 1,100 - 1,300 x g; 4°C) in a refrigerated centrifuge. Plasma samples were frozen immediately and stored at approximately -70°C or lower until analysis.
Plasma concentration-time data were analyzed by standard non-compartmental methods using WinNonlin (Pharsight, Mountain View, CA). Standard descriptive statistics were used to summarize plasma sapanisertib PK parameters. […] Oral steady-state clearance (ClSS/F) was calculated using the equation, ClSS = Dose/AUCτ.

[3] = tested on: phospho-4EBP1 (direct mTORC1 substrate) in ALL sample; test: Immunoblotting of pretreatment ALL specimen treated ex vivo 48 h with sapanisertib; format: cell-based, human; conditions: 5 μM Q‐VD‐OPh
From the text: FIGURE 2 Effect of MLN0128 concentrations on mTOR‐associated phosphorylation in vitro, ex vivo, and in the context of the present trial. […] (C) Samples harvested from the indicated patients prior to treatment (lanes 1, 4, 6, 8, and 10), on Day 8 prior to therapy (lanes 2, 5, 7, 9, and 11), or at the time of removal from study after 6 weeks (lane 3) were subjected to SDS‐PAGE and blotting for the indicated antigens. Jurkat cells (lane 12) were included in the blot because they were known to be positive for all analytes.[29] The housekeeping protein nucleolin (NCL) served as a loading control.
Cells were isolated from bone marrow or blood samples using Histopaque-1077 (Millipore-Sigma, St. Louis, MO) step gradients. […] Cells for ex vivo drug exposure were resuspended at a concentration of 1 x 10^6 cells/ml in RPMI 1640 medium containing 10% (v/v) heat-inactivated fetal bovine serum, 50 U/ml penicillin G, 50 µg/ml streptomycin, and 1 mM glutamine. […]

[4] = tested on: human ALL cell line xenografts; set-up: method as in PMID 26917778; conditions: cited from earlier work

Question: What does the source list for CC(C)n1nc(-c2ccc3oc(N)nc3c2)c2c(N)ncnc21 [sapanisertib]?
Answer: CR or CRi ([1]; 3 mg daily 21 of 28 days): No patient; Median survival ([1]; 51.0‐NA 95% CI): 62 days; best response stable disease, patients ([1]; in vivo): 2 patients and 3 patients; best response stable disease, percent of patients ([1]; in vivo): 12.5% and 19%; disease progression, patients ([1]; in vivo): 6 patients; disease progression, percent of patients ([1]; in vivo): 38%; not evaluable because of early discontinuation, patients ([1]; in vivo): 7 patients; not evaluable because of early discontinuation, percent ([1]; in vivo): 44%; C max, Mean ± SD ([2]; Cycle 1 Day 1, 3 mg daily oral): 26.1 ± 8.0 ng/mL; CL, Mean ± SD ([2]; Cycle 1 Day 1, 3 mg daily oral): 22.0 ± 14.2 L/h; CL, Median (range) ([2]; Cycle 1 Day 1, 3 mg daily oral): 22.0 (5.8–49.2) L/hr; CL, Mean ± SD ([2]; Cycle 1 Day 8, 3 mg daily oral): 23.3 ± 23.8 L/h; CL, Median (range) ([2]; Cycle 1 Day 8, 3 mg daily oral): 16.4 (3.2–82.6) L/hr; peak plasma concentration ([2]; Day 1): 84 nM; time to peak concentration after drug administration ([2]; Day 1): 2 h; time to peak concentration after drug administration ([2]; Day 8): 1.2 h; time of peak concentration (mean) ([2]; Day 8 dose, discussion): 1.5 h; mean accumulation ratio ([2]; Day 8 versus Day 1 AUCall): 1.4; half‐life (terminal serum) ([2]; discussion): 8 h; half-life ([2]; oral, Day 1, read-out: mean elimination half‐life (converted)): 8.2 ± 4.9 h; Tmax ([2]; oral, Day 1, read-out: time to peak concentration, range): 0.5 to 4.1 h; half-life ([2]; oral, Day 8, read-out: mean half‐life (converted)): 24.3 ± 42.5 h; Tmax ([2]; oral, Day 8, read-out: time to peak concentration, range): 0.5 to 2.9 h; concentration at 7 days ([2]; oral, read-out: median trough concentration): 1.9 ng/mL; concentration at 7 days ([2]; oral, read-out: trough concentration, range): 0 to 41.6 ng/mL; AUC(0-t) ([2]; po, Cycle 1 Day 1, 3 mg daily oral, read-out: AUC0–24 h, Mean ± SD): 213 ± 143 ng·h/mL; AUC(0-t) ([2]; po, Cycle 1 Day 1, 3 mg daily oral, read-out: AUC0–24 h, Median (range)): 213 ng·h/mL; Cmax ([2]; po, Cycle 1 Day 1, 3 mg daily oral, read-out: C max, Mean ± SD): 26 ng/mL; Cmax ([2]; po, Cycle 1 Day 1, 3 mg daily oral, read-out: C max, Median (range)): 26.5 ng/mL; half-life ([2]; po, Cycle 1 Day 1, 3 mg daily oral, read-out: Half‐life, Mean ± SD (converted)): 8.2 ± 4.9 h; half-life ([2]; po, Cycle 1 Day 1, 3 mg daily oral, read-out: Half‐life, Median (range) (converted)): 7.1 h; Tmax ([2]; po, Cycle 1 Day 1, 3 mg daily oral, read-out: T max, Mean ± SD): 1.7 ± 1.1 h; Tmax ([2]; po, Cycle 1 Day 1, 3 mg daily oral, read-out: T max, Median (range)): 2 h; AUC(0-t) ([2]; po, Cycle 1 Day 8, 3 mg daily oral, read-out: AUC0–24 h, Mean ± SD): 361 ± 337 ng·h/mL; AUC(0-t) ([2]; po, Cycle 1 Day 8, 3 mg daily oral, read-out: AUC0–24 h, Median (range)): 182 ng·h/mL; Cmax ([2]; po, Cycle 1 Day 8, 3 mg daily oral, read-out: C max, Mean ± SD): 34.4 ± 20.9 ng/mL; Cmax ([2]; po, Cycle 1 Day 8, 3 mg daily oral, read-out: C max, Median (range)): 29.4 ng/mL; half-life ([2]; po, Cycle 1 Day 8, 3 mg daily oral, read-out: Half‐life, Mean ± SD (converted)): 24.3 ± 42.5 h; half-life ([2]; po, Cycle 1 Day 8, 3 mg daily oral, read-out: Half‐life, Median (range) (converted)): 11.3 h; Tmax ([2]; po, Cycle 1 Day 8, 3 mg daily oral, read-out: T max, Mean ± SD): 1.5 ± 0.7 h; Tmax ([2]; po, Cycle 1 Day 8, 3 mg daily oral, read-out: T max, Median (range)): 1.2 h; concentration diminishing phosphorylation of 4EBP1 without change in total 4EBP1 [3]: 62.5 to 200 nM; growth of human ALL cell line xenografts [4]: inhibited growth
